PubChem BioAssay AID272 (DTP/NCI, 2004)
Where “and” joins values, the source holds several entries; their conditions need not be identical. Equal values may be shown once. Results filed as inconclusive are left out.

System: Lewis lung carcinoma i.m., BDF1 mice, T/C %
Experiment: NCI In Vivo Anticancer Drug Screen. Data for tumor model Lewis Lung Carcinoma (intramuscular) in B6D2F1 (BDF1) mice
Protocol: The antitumor activity of compounds was measured in mice bearing transplantable tumors. Survival or tumor size were measured and the results are expressed as the measurement made in the treated group (T) divided by the measurement made in the vehicle treated control group (C). The tumor model used in this assay is Lewis Lung Carcinoma (intramuscular) in B6D2F1 (BDF1) mice

[1] = endpoint: mean tumor weight (est.), dose: 6.25 mg/kg/injection, schedule: Q01DX011 (ip), vehicle: saline with Tween-80, higher = larger tumour
[2] = endpoint: mean tumor weight (est.), dose: 12.5 mg/kg/injection, schedule: Q01DX011 (ip), vehicle: saline with Tween-80, higher = larger tumour
[3] = endpoint: mean tumor weight (est.), dose: 25.0 mg/kg/injection, schedule: Q01DX011 (ip), vehicle: saline with Tween-80, higher = larger tumour
[4] = endpoint: mean tumor weight, dose: 25.0 mg/kg/injection, schedule: Q01DX011 (ip), vehicle: other, higher = larger tumour
[5] = endpoint: median survival time, dose: 6.25 mg/kg/injection, schedule: Q01DX011 (ip), vehicle: saline with Tween-80, higher = longer survival
[6] = endpoint: median survival time, dose: 12.5 mg/kg/injection, schedule: Q01DX011 (ip), vehicle: saline with Tween-80, higher = longer survival
[7] = endpoint: median survival time, dose: 25.0 mg/kg/injection, schedule: Q01DX011 (ip), vehicle: saline with Tween-80, higher = longer survival

Structure (SMILES): O=C1C(=O)c2ccccc2C(O)=C1CC=C(Cl)Cl
- T/C [1]: 93 % of control
- T/C [2]: 86 % of control
- T/C [3]: 61 % of control
- T/C (endpoint: mean tumor weight (est.), dose: 50.0 mg/kg/injection, schedule: Q01DX011 (ip), vehicle: saline with Tween-80, higher = larger tumour): 79 % of control
- T/C (endpoint: mean tumor weight, dose: 3.75 mg/kg/injection, schedule: Q01DX011 (oral), vehicle: saline, higher = larger tumour): 40 % of control
- T/C (endpoint: mean tumor weight, dose: 7.5 mg/kg/injection, schedule: Q01DX011 (ip), vehicle: saline, higher = larger tumour): 54 % of control
- T/C (endpoint: mean tumor weight, dose: 7.5 mg/kg/injection, schedule: Q01DX011 (oral), vehicle: saline, higher = larger tumour): 41 % of control
- T/C (endpoint: mean tumor weight, dose: 10.0 mg/kg/injection, schedule: Q01DX011 (ip), vehicle: saline, higher = larger tumour): 102 % of control
- T/C (endpoint: mean tumor weight, dose: 12.5 mg/kg/injection, schedule: Q01DX011 (ip), vehicle: other, higher = larger tumour): 71 % of control
- T/C (endpoint: mean tumor weight, dose: 15.0 mg/kg/injection, schedule: Q01DX011 (ip), vehicle: saline, higher = larger tumour): 43 % of control
- T/C (endpoint: mean tumor weight, dose: 20.0 mg/kg/injection, schedule: Q01DX011 (ip), vehicle: saline, higher = larger tumour): 91 % of control
- T/C [4]: 88 % of control
- T/C (endpoint: mean tumor weight, dose: 30.0 mg/kg/injection, schedule: Q01DX011 (ip), vehicle: saline, higher = larger tumour): 30 % of control
- T/C (endpoint: mean tumor weight, dose: 40.0 mg/kg/injection, schedule: Q01DX011 (ip), vehicle: saline, higher = larger tumour): 82 % of control
- T/C (endpoint: mean tumor weight, dose: 50.0 mg/kg/injection, schedule: Q01DX011 (ip), vehicle: other, higher = larger tumour): 55 % of control
- T/C (endpoint: median survival time, dose: 3.75 mg/kg/injection, schedule: Q01DX011 (oral), vehicle: saline, higher = longer survival): 100 % of control
- T/C [5]: 89 % of control
- T/C (endpoint: median survival time, dose: 7.5 mg/kg/injection, schedule: Q01DX011 (ip), vehicle: saline, higher = longer survival): 111 % of control
- T/C (endpoint: median survival time, dose: 7.5 mg/kg/injection, schedule: Q01DX011 (oral), vehicle: saline, higher = longer survival): 101 % of control
- T/C [6]: 93 % of control
- T/C (endpoint: median survival time, dose: 15.0 mg/kg/injection, schedule: Q01DX011 (ip), vehicle: saline, higher = longer survival): 113 % of control
- T/C (endpoint: median survival time, dose: 20.0 mg/kg/injection, schedule: Q01DX011 (ip), vehicle: saline, higher = longer survival): 87 % of control
- T/C [7]: 89 % of control
- T/C (endpoint: median survival time, dose: 30.0 mg/kg/injection, schedule: Q01DX011 (ip), vehicle: saline, higher = longer survival): 108 % of control

Structure (SMILES): N#Cc1c(F)c(F)c(C#N)c(F)c1F
- T/C (endpoint: mean tumor weight (est.), dose: 1.25 mg/kg/injection, schedule: Q01DX011 (ip), vehicle: saline with Tween-80, higher = larger tumour): 100 % of control
- T/C (endpoint: mean tumor weight (est.), dose: 2.5 mg/kg/injection, schedule: Q01DX011 (ip), vehicle: saline with Tween-80, higher = larger tumour): 95 % of control
- T/C (endpoint: mean tumor weight (est.), dose: 5.0 mg/kg/injection, schedule: Q01DX011 (ip), vehicle: saline with Tween-80, higher = larger tumour): 101 % of control
- T/C (endpoint: mean tumor weight (est.), dose: 10.0 mg/kg/injection, schedule: Q01DX011 (ip), vehicle: saline with Tween-80, higher = larger tumour): 70 % of control
- T/C (endpoint: median survival time, dose: 1.25 mg/kg/injection, schedule: Q01DX011 (ip), vehicle: saline with Tween-80, higher = longer survival): 87 % of control
- T/C (endpoint: median survival time, dose: 10.0 mg/kg/injection, schedule: Q01DX011 (ip), vehicle: saline with Tween-80, higher = longer survival): 89 % of control

Structure (SMILES): C[C@]12C=CC(=O)C=C1CC[C@@H]1[C@@H]2C(=O)C[C@@]2(C)[C@H]1CC[C@]2(O)C(=O)CO
- T/C (endpoint: mean tumor weight, dose: 23.0 mg/kg/injection, schedule: Q01DX009 (ip), vehicle: water, higher = larger tumour): 70 % of control
- T/C (endpoint: mean tumor weight, dose: 25.0 mg/kg/injection, schedule: Q01DX011 (ip), vehicle: saline, higher = larger tumour): 45 % of control
- T/C (endpoint: mean tumor weight, dose: 39.0 mg/kg/injection, schedule: Q01DX009 (ip), vehicle: water, higher = larger tumour): 50 % of control
- T/C (endpoint: mean tumor weight, dose: 50.0 mg/kg/injection, schedule: Q01DX011 (ip), vehicle: saline, higher = larger tumour): 36 % of control
- T/C (endpoint: mean tumor weight, dose: 100.0 mg/kg/injection, schedule: Q01DX011 (ip), vehicle: saline, higher = larger tumour): 17 % of control
- T/C (endpoint: mean tumor weight, dose: 200.0 mg/kg/injection, schedule: Q01DX011 (ip), vehicle: saline, higher = larger tumour): 5 % of control
- T/C (endpoint: median survival time, dose: 23.0 mg/kg/injection, schedule: Q01DX009 (ip), vehicle: none, higher = longer survival): 109 % of control
- T/C (endpoint: median survival time, dose: 23.0 mg/kg/injection, schedule: Q01DX009 (ip), vehicle: water, higher = longer survival): 106 % of control
- T/C (endpoint: median survival time, dose: 25.0 mg/kg/injection, schedule: Q01DX011 (ip), vehicle: carboxymethylcellulose (CMC), higher = longer survival): 106 % of control and 113 % of control
- T/C (endpoint: median survival time, dose: 25.0 mg/kg/injection, schedule: Q01DX011 (ip), vehicle: saline, higher = longer survival): 112 % of control
- T/C (endpoint: median survival time, dose: 25.0 mg/kg/injection, schedule: Q01DX011 (ip), vehicle: water, higher = longer survival): 110 % of control
- T/C (endpoint: median survival time, dose: 39.0 mg/kg/injection, schedule: Q01DX009 (ip), vehicle: none, higher = longer survival): 104 % of control
- T/C (endpoint: median survival time, dose: 39.0 mg/kg/injection, schedule: Q01DX009 (ip), vehicle: water, higher = longer survival): 90 % of control
- T/C (endpoint: median survival time, dose: 50.0 mg/kg/injection, schedule: Q01DX011 (ip), vehicle: carboxymethylcellulose (CMC), higher = longer survival): 115 % of control and 121 % of control
- T/C (endpoint: median survival time, dose: 50.0 mg/kg/injection, schedule: Q01DX011 (ip), vehicle: saline, higher = longer survival): 104 % of control
- T/C (endpoint: median survival time, dose: 50.0 mg/kg/injection, schedule: Q01DX011 (ip), vehicle: water, higher = longer survival): 108 % of control
- T/C (endpoint: median survival time, dose: 52.0 mg/kg/injection, schedule: Q01DX007 (sc), vehicle: saline, higher = longer survival): 118 % of control and 119 % of control
- T/C (endpoint: median survival time, dose: 65.0 mg/kg/injection, schedule: Q01DX009 (ip), vehicle: none, higher = longer survival): 95 % of control
- T/C (endpoint: median survival time, dose: 86.0 mg/kg/injection, schedule: Q01DX007 (sc), vehicle: saline, higher = longer survival): 95 % of control and 113 % of control
- T/C (endpoint: median survival time, dose: 100.0 mg/kg/injection, schedule: Q01DX011 (ip), vehicle: saline, higher = longer survival): 102 % of control
- T/C (endpoint: median survival time, dose: 100.0 mg/kg/injection, schedule: Q01DX011 (ip), vehicle: water, higher = longer survival): 94 % of control
- T/C (endpoint: median survival time, dose: 108.0 mg/kg/injection, schedule: Q01DX009 (ip), vehicle: none, higher = longer survival): 46 % of control
- T/C (endpoint: median survival time, dose: 144.0 mg/kg/injection, schedule: Q01DX007 (sc), vehicle: saline, higher = longer survival): 105 % of control
- T/C (endpoint: median survival time, dose: 180.0 mg/kg/injection, schedule: Q01DX009 (ip), vehicle: none, higher = longer survival): 42 % of control
- T/C (endpoint: median survival time, dose: 240.0 mg/kg/injection, schedule: Q01DX007 (sc), vehicle: saline, higher = longer survival): 68 % of control

Structure (SMILES): O=[N+]([O-])c1cc(Cl)cc2c1nc(NCCO)c1ccccc12
- T/C [2]: 70 % of control
- T/C [3]: 43 % of control
- T/C [6]: 98 % of control

Structure (SMILES): CC(=O)c1c(O)c(C)c(O)c2c1OC1=CC(=O)C(C(C)=O)C(=O)C12C (stereo unspecified)
- T/C (endpoint: mean tumor weight, dose: 53.0 mg/kg/injection, schedule: Q01DX011 (ip), vehicle: other, higher = larger tumour): 110 % of control
- T/C (endpoint: mean tumor weight, dose: 79.0 mg/kg/injection, schedule: Q01DX011 (ip), vehicle: other, higher = larger tumour): 92 % of control
- T/C (endpoint: mean tumor weight, dose: 118.0 mg/kg/injection, schedule: Q01DX011 (ip), vehicle: other, higher = larger tumour): 105 % of control
- T/C (endpoint: mean tumor weight, dose: 177.0 mg/kg/injection, schedule: Q01DX011 (ip), vehicle: other, higher = larger tumour): 77 % of control
- T/C (endpoint: median survival time, dose: 53.0 mg/kg/injection, schedule: Q01DX011 (ip), vehicle: other, higher = longer survival): 98 % of control
- T/C (endpoint: median survival time, dose: 79.0 mg/kg/injection, schedule: Q01DX011 (ip), vehicle: other, higher = longer survival): 103 % of control
- T/C (endpoint: median survival time, dose: 177.0 mg/kg/injection, schedule: Q01DX011 (ip), vehicle: other, higher = longer survival): 96 % of control

Structure (SMILES): Nc1nc2n[nH]nc2c(=O)[nH]1
- T/C [4]: 81 % of control
- T/C (endpoint: mean tumor weight, dose: 100.0 mg/kg/injection, schedule: Q01DX011 (ip), vehicle: other, higher = larger tumour): 64 % of control

Structure (SMILES): Clc1ccc2nc(CBr)cnc2c1
- T/C [1]: 64 % of control
- T/C [2]: 77 % of control
- T/C [3]: 81 % of control
- T/C [5]: 105 % of control
- T/C [6]: 105 % of control
- T/C [7]: 103 % of control

Structure (SMILES): C1OC1CN1CCN(CC2CO2)CC1 (stereo unspecified)
- T/C (endpoint: mean tumor weight (est.), dose: 1.0 mg/kg/injection, schedule: Q01DX011 (ip), vehicle: saline, higher = larger tumour): 83 % of control
- T/C (endpoint: mean tumor weight (est.), dose: 2.0 mg/kg/injection, schedule: Q01DX011 (ip), vehicle: saline, higher = larger tumour): 65 % of control
- T/C (endpoint: mean tumor weight (est.), dose: 4.0 mg/kg/injection, schedule: Q01DX011 (ip), vehicle: saline, higher = larger tumour): 74 % of control
- T/C (endpoint: mean tumor weight (est.), dose: 8.0 mg/kg/injection, schedule: Q01DX011 (ip), vehicle: saline, higher = larger tumour): 71 % of control
- T/C (endpoint: mean tumor weight (est.), dose: 16.0 mg/kg/injection, schedule: Q01DX011 (ip), vehicle: saline, higher = larger tumour): 63 % of control
- T/C (endpoint: median survival time, dose: 2.0 mg/kg/injection, schedule: Q01DX011 (ip), vehicle: saline, higher = longer survival): 96 % of control
- T/C (endpoint: median survival time, dose: 4.0 mg/kg/injection, schedule: Q01DX011 (ip), vehicle: saline, higher = longer survival): 105 % of control
- T/C (endpoint: median survival time, dose: 16.0 mg/kg/injection, schedule: Q01DX011 (ip), vehicle: saline, higher = longer survival): 106 % of control
